# Test results taken from publication PMC6627609, “Targeting Quorum Sensing: High-Throughput Screening to Identify Novel LsrK Inhibitors” (International Journal of Molecular Sciences, 2019).
# Counter-ions that a name gives are not always drawn.
# Target: LsrK (Salmonella typhimurium, UniProt Q8ZKQ6)
# Assay: biochemical
# Format: biochemical, S. typhimurium
# Settings: not given
# Sequence of LsrK (Q8ZKQ6 whole entry): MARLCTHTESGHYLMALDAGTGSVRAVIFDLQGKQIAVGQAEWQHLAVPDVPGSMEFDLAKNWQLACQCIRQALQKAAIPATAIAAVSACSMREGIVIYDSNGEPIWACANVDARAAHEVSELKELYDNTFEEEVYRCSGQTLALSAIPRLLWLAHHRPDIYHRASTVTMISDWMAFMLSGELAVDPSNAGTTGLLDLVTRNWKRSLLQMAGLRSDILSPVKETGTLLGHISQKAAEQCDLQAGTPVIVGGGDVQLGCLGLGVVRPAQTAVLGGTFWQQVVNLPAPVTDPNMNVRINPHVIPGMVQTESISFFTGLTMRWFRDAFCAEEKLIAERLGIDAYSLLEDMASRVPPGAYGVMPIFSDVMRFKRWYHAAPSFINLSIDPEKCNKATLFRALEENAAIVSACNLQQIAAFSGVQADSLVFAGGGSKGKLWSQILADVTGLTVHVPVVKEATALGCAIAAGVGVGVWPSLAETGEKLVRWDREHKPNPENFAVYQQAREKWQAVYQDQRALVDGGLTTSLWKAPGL
row,Compound,inhibition at 50 µM
1,C1CCc2nnnn2CC1 [PENTYLENETETRAZOL],0%
2,Nc1nc(/C(=C/CC(=O)O)C(=O)N[C@@H]2C(=O)N3C(C(=O)O)=CCS[C@H]23)cs1 [CEFTIBUTEN],105%
3,CC1(C)C[C@@H]2C(=O)CC[C@H]3O[C@]3(C)CC[C@H]21 [KOBUSONE],1%
4,COC(=O)c1c(C)cc(O)cc1O [METHYL ORSELLINATE],0%
5,CO[C@H]1/C=C/O[C@@]2(C)Oc3c(C)c(O)c4c(O)c(c5c(nc6cc(C)ccn65)c4c3C2=O)NC(=O)/C(C)=C\C=C\[C@H](C)[C@H](O)[C@@H](C)[C@@H](O)[C@@H](C)[C@H](OC(C)=O)[C@@H]1C [RIFAXIMIN],1%
6,COc1cc(-c2ccc(/N=N/c3ccc4c(S(=O)(=O)O)cc(S(=O)(=O)O)c(N)c4c3O)c(OC)c2)ccc1/N=N/c1ccc2c(S(=O)(=O)O)cc(S(=O)(=O)O)c(N)c2c1O [CHICAGO SKY BLUE],41%
7,O=C(c1ccccc1)c1ccc2n1CCC2C(=O)O (centres unmarked) [KETOROLAC TROMETHAMINE],0%
8,COC(=O)C1=C(C)NC(C)=C(C(=O)OC)C1c1ccccc1[N+](=O)[O-] [NIFEDIPINE],98%
9,CCOC(=O)CCC(=O)O[C@H]1[C@H](O[C@@H]2[C@@H](C)[C@H](O[C@H]3C[C@@](C)(OC)[C@@H](O)[C@H](C)O3)[C@@H](C)C(=O)O[C@H](CC)[C@@](C)(O)[C@H](O)[C@@H](C)C(=O)[C@H](C)C[C@@]2(C)O)O[C@H](C)C[C@@H]1N(C)C [ERYTHROMYCIN ETHYLSUCCINATE],1%
10,CC(=O)N(c1onc(C)c1C)S(=O)(=O)c1ccc(N)cc1 [SULFISOXAZOLE ACETYL],4%
11,Cc1ccccc1N1C(=O)c2cc(S(N)(=O)=O)c(Cl)cc2NC1C (centres unmarked) [METOLAZONE],1%
12,O=C(CCCN1CCN(c2ccccn2)CC1)c1ccc(F)cc1 [AZAPERONE],25%
13,CC[C@H](c1ccc(O)cc1)[C@@H](CC)c1ccc(O)cc1 [HEXESTROL],3%
14,CCC(=O)O[C@]1(C(=O)CCl)[C@@H](C)C[C@H]2[C@@H]3CCC4=CC(=O)C=C[C@]4(C)[C@@]3(F)[C@@H](O)C[C@@]21C [CLOBETASOL PROPIONATE],2%
15,CC1=NCCc2c1[nH]c1cc(O)ccc21 [HARMALOL HYDROCHLORIDE],4%
16,NC(=O)C(c1ccccc1)(c1ccccc1)[C@@H]1CCN(CCc2ccc3c(c2)CCO3)C1 [DARIFENACIN HYDROBROMIDE],2%
17,N[C@@H](CCC(=O)N[C@@H](CS)C(=O)NCC(=O)O)C(=O)O [GLUTATHIONE],1%

# Same assay, conditions: 50 µM
row,Compound,Inhibition (%)
1,CC(=O)c1c(O)cc(O)cc1O [PHLORACETOPHENONE],1
2,CCC(=O)OCC(=O)[C@@]1(OC(=O)CC)[C@@H](C)C[C@H]2[C@@H]3CCC4=CC(=O)C=C[C@]4(C)[C@@]3(F)[C@@H](O)C[C@@]21C [BETAMETHASONE 17.21-DIPROPIONATE],0
3,Cl.N=C(N)NCCC[C@H](N)C(=O)O [ARGININE HYDROCHLORIDE],1
4,COc1ccc(C(=O)O)c(O)c1OC [2-HYDROXY-3.4-DIMETHOXYBENZOIC ACID],1
5,COc1cc2c3cc1Oc1cc(ccc1O)C[C@@H]1c4c(cc(OC)c(O)c4Oc4ccc(cc4)C[C@@H]3N(C)CC2)CC[N+]1(C)C.Cl.O.O.O.O.O.[Cl-] [TUBOCURARINE CHLORIDE],0
6,CCOc1cccc(C(=O)c2ccc(O)c(O)c2O)c1,11
7,COc1cc2nc(N(C)CCCNC(=O)C3CCCO3)nc(N)c2cc1OC (centres unmarked) [ALFLUZOSIN],1
8,HECOGENIN,2
9,CC(C)(C)NCC(O)c1cc(O)cc(O)c1.CC(C)(C)NCC(O)c1cc(O)cc(O)c1.O=S(=O)(O)O (centres unmarked) [TERBUTALINE HEMISULFATE],1
10,COc1ccc2[nH]c3c(c2c1)CCN=C3C [6-METHOXYHARMALAN],2
11,CC(C)=CCC/C(C)=C/CC/C(C)=C/CC/C(C)=C/CC/C(C)=C/CC/C(C)=C/CC/C(C)=C/CC/C(C)=C/CC/C(C)=C/CO [SOLANESOL],1
12,C=CCCCCCCCCCCCc1ccco1 [AVOCADENOFURAN],2
13,CN1CCCN=C1/C=C/c1cccc(O)c1.O=C(O)c1cc2ccccc2c(Cc2c(O)c(C(=O)O)cc3ccccc23)c1O [OXANTEL PAMOATE],6
14,COC(=O)NC(=S)Nc1ccccc1NC(=S)NC(=O)OC,3
15,C[C@]12CCC(=O)C=C1C=C[C@@H]1[C@@H]2CC[C@@]2(C)[C@H]1CC[C@@]2(O)CCC(=O)[O-].[K+] [CANRENOIC ACID. POTASSIUM SALT],0
16,IVERMECTIN,1
17,CC1(C)C2CC(=O)[C@]3(C)C(CC[C@@]4(C)[C@H](c5ccoc5)OC(=O)C5OC543)[C@@]2(C)[C@@H](O)C[C@H]1O (some centres unmarked),2
18,O=C(O)CCCCCCCC(O)C(O)CCCCCCO (centres unmarked) [ALEURETIC ACID],0
